# Measured values reported in ChEMBL document CHEMBL1932976, “Synthesis of novel 1,3-diaryl pyrazole derivatives bearing rhodanine-3-fatty acid moieties as potential antibacterial agents” (2012).
# Tests used:
# Type in all cases: functional
# [1] = test system: Escherichia coli; assay: Antibacterial activity against Escherichia coli CCARM 1356 after 20 hrs by twofold serial dilution technique; details: CCARM 1356, 20 h
# [2] = test system: Escherichia coli; assay: Antibacterial activity against Escherichia coli CCARM 1924 after 20 hrs by twofold serial dilution technique; details: CCARM 1924, 20 h
# [3] = test system: Staphylococcus aureus; assay: Antibacterial activity against Staphylococcus aureus KCTC 503 after 20 hrs by twofold serial dilution technique; details: KCTC 503, 20 h
# [4] = test system: Staphylococcus aureus; assay: Antibacterial activity against quinolone-resistant Staphylococcus aureus CCARM 3519 after 20 hrs by twofold serial dilution technique; details: CCARM 3519, 20 h
# [5] = test system: Staphylococcus aureus; assay: Antibacterial activity against methicillin-resistant Staphylococcus aureus CCARM 3167 after 20 hrs by twofold serial dilution technique; details: CCARM 3167, 20 h
# [6] = test system: Staphylococcus aureus; assay: Antibacterial activity against Staphylococcus aureus RN4220 after 20 hrs by twofold serial dilution technique; details: RN4220, 20 h
# [7] = test system: Staphylococcus aureus; assay: Antibacterial activity against methicillin-resistant Staphylococcus aureus CCARM 3506 after 20 hrs by twofold serial dilution technique; details: CCARM 3506, 20 h
# [8] = test system: Staphylococcus aureus; assay: Antibacterial activity against quinolone-resistant Staphylococcus aureus CCARM 3505 after 20 hrs by twofold serial dilution technique; details: CCARM 3505, 20 h
Compound,MIC [1] [µg/mL],MIC [2] [µg/mL],MIC [3] [µg/mL],MIC [4] [µg/mL],MIC [5] [µg/mL],MIC [6] [µg/mL],MIC [7] [µg/mL],MIC [8] [µg/mL]
Cc1ccc(-c2nn(-c3ccccc3)cc2/C=C2\SC(=S)N(CC(=O)O)C2=O)c(C)c1,> 64,> 64,16,16,16,16,16,16
O=C(O)CCCCN1C(=O)/C(=C/c2cn(-c3ccccc3)nc2-c2ccc(Cl)cc2)SC1=S,> 64,> 64,> 64,–,–,> 64,–,–
O=C(O)CN1C(=O)/C(=C/c2cn(-c3ccccc3)nc2-c2ccc3ccccc3c2)SC1=S,> 64,> 64,> 64,–,–,> 64,–,–
O=C(O)CN1C(=O)/C(=C/c2cn(-c3ccccc3)nc2-c2ccc(Cl)cc2Cl)SC1=S,> 64,> 64,8,8,4,8,4,8
CCn1cc(C(=O)O)c(=O)c2cc(F)c(N3CCNCC3)cc21 [NORFLOXACIN],16,16,2,> 64,8,2,4,> 64
O=C(O)CCCCN1C(=O)/C(=C/c2cn(-c3ccccc3)nc2-c2ccc(Cl)cc2Cl)SC1=S,> 64,> 64,4,2,2,4,2,2
O=C(O)CCCN1C(=O)/C(=C/c2cn(-c3ccccc3)nc2-c2ccc(Cl)cc2Cl)SC1=S,> 64,> 64,4,4,4,8,4,4
O=C(O)CN1C(=O)/C(=C/c2cn(-c3ccccc3)nc2-c2ccc([N+](=O)[O-])cc2)SC1=S,> 64,> 64,> 64,–,–,> 64,–,–
O=C(O)CN1C(=O)/C(=C/c2cn(-c3ccccc3)nc2-c2ccccc2F)SC1=S,> 64,> 64,64,64,64,64,64,64
O=C(O)CN1C(=O)/C(=C/c2cn(-c3ccccc3)nc2-c2ccccc2Cl)SC1=S,> 64,> 64,32,32,16,32,32,32
O=C(O)CN1C(=O)/C(=C/c2cn(-c3ccccc3)nc2-c2ccc(F)cc2)SC1=S,> 64,> 64,> 64,–,–,> 64,–,–
O=C(O)CN1C(=O)/C(=C/c2cn(-c3ccccc3)nc2-c2cccc(Br)c2)SC1=S,> 64,> 64,32,64,8,8,16,16
O=C(O)CCCCCN1C(=O)/C(=C/c2cn(-c3ccccc3)nc2-c2ccc(Cl)cc2Cl)SC1=S,> 64,> 64,8,4,4,32,32,32
Cc1onc(-c2ccccc2)c1C(=O)N[C@@H]1C(=O)N2[C@@H]1SC(C)(C)[C@@H]2C(=O)O [OXACILLIN],> 64,> 64,1,1,> 64,1,> 64,1
O=C(O)CN1C(=O)/C(=C/c2cn(-c3ccccc3)nc2-c2ccc(Br)cc2)SC1=S,> 64,> 64,8,8,8,8,8,8
COc1ccccc1-c1nn(-c2ccccc2)cc1/C=C1\SC(=S)N(CC(=O)O)C1=O,> 64,> 64,> 64,–,–,> 64,–,–
O=C(O)CN1C(=O)/C(=C/c2cn(-c3ccccc3)nc2-c2cccc(Cl)c2)SC1=S,> 64,> 64,> 64,64,16,16,32,16
O=C(O)CCCCCN1C(=O)/C(=C/c2cn(-c3ccccc3)nc2-c2ccc(Cl)cc2)SC1=S,> 64,> 64,> 64,–,–,> 64,–,–
Cc1ccc(-c2nn(-c3ccccc3)cc2/C=C2\SC(=S)N(CC(=O)O)C2=O)cc1,> 64,> 64,> 64,64,16,16,16,16
COc1ccc(-c2nn(-c3ccccc3)cc2/C=C2\SC(=S)N(CC(=O)O)C2=O)cc1,> 64,> 64,> 64,–,–,> 64,–,–
O=C(O)CCN1C(=O)/C(=C/c2cn(-c3ccccc3)nc2-c2ccc(Cl)cc2)SC1=S,> 64,> 64,16,8,4,8,4,4
O=C(O)CN1C(=O)/C(=C/c2cn(-c3ccccc3)nc2-c2ccc(Cl)cc2)SC1=S,> 64,> 64,8,16,8,8,8,8
COc1cccc(-c2nn(-c3ccccc3)cc2/C=C2\SC(=S)N(CC(=O)O)C2=O)c1,> 64,> 64,64,64,32,64,64,64
O=C(O)CCCN1C(=O)/C(=C/c2cn(-c3ccccc3)nc2-c2ccc(Cl)cc2)SC1=S,> 64,> 64,4,4,4,8,4,4
O=C(O)CN1C(=O)/C(=C/c2cn(-c3ccccc3)nc2-c2ccccc2)SC1=S,> 64,> 64,64,32,32,64,32,32
O=C(O)CCN1C(=O)/C(=C/c2cn(-c3ccccc3)nc2-c2ccc(Cl)cc2Cl)SC1=S,> 64,> 64,4,4,4,8,4,4
